In patent US11661431B2, “Thienopyrrole compounds” (Gilead Sciences, Inc., priority 2021, dated 2023):
pEC50: −log10 of the molar value. Like-named read-outs stand apart in the source and are kept apart here.

How the values were obtained:
[1] = target: TLR7 (Homo sapiens (Human), UniProt Q9NYK1); experiment: TLR7 human peripheral blood mononuclear cell (PBMC) cell-based assay (GS-986 as agonist; IL-6 and IFNα readout); conditions: TLR7 agonist GS-986 at 400 nM, 6 hours, antagonist potency
In short: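 IL-6 and IFNα released into supernatant were quantified by electrochemiluminescence immunoassay. Before that, human PBMCs at 100,000 per well received a 10-point antagonist titration for 1 h, then TLR7 agonist for 6 more hours, all at 37 °C, 5% CO2.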

[2] = target: TLR8 (Homo sapiens (Human), UniProt Q9NR97); experiment: TLR8 human peripheral blood mononuclear cell (PBMC) cell-based assay (Compound A as agonist; TNFα and IL12p40 readout); conditions: TLR8 agonist Compound A at 800 nM, 6 hours, antagonist potency
Sequence of TLR8 (Q9NR97 27-1041): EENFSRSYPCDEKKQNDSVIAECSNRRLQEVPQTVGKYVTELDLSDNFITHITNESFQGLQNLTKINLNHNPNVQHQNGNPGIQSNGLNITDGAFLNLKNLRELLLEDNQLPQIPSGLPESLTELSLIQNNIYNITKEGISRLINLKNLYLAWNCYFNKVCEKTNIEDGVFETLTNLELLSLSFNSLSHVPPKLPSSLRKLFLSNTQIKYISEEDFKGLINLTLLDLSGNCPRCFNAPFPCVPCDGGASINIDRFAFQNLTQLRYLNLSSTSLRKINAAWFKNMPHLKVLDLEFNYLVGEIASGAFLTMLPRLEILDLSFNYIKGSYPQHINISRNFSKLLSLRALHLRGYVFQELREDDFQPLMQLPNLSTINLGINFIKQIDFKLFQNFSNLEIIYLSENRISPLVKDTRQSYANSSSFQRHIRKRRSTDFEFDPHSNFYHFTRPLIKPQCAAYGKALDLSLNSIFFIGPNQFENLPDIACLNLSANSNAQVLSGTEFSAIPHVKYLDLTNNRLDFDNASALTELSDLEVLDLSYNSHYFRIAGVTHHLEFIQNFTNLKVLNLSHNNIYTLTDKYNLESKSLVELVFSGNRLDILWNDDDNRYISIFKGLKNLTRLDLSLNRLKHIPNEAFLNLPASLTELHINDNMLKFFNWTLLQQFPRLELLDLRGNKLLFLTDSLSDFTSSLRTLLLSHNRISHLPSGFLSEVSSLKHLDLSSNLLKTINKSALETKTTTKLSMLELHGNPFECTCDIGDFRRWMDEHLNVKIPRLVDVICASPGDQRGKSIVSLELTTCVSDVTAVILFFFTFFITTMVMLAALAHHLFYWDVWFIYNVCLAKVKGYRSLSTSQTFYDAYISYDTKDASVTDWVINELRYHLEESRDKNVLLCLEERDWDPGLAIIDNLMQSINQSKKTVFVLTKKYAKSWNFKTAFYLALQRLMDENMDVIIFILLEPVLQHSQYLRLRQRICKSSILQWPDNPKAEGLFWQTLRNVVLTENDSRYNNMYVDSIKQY

[3] = human PBMCs, read-out: TLR-7 EC50
[4] = human PBMCs, read-out: TLR-8 EC50

Sequence of TLR7 (Q9NYK1 27-1049): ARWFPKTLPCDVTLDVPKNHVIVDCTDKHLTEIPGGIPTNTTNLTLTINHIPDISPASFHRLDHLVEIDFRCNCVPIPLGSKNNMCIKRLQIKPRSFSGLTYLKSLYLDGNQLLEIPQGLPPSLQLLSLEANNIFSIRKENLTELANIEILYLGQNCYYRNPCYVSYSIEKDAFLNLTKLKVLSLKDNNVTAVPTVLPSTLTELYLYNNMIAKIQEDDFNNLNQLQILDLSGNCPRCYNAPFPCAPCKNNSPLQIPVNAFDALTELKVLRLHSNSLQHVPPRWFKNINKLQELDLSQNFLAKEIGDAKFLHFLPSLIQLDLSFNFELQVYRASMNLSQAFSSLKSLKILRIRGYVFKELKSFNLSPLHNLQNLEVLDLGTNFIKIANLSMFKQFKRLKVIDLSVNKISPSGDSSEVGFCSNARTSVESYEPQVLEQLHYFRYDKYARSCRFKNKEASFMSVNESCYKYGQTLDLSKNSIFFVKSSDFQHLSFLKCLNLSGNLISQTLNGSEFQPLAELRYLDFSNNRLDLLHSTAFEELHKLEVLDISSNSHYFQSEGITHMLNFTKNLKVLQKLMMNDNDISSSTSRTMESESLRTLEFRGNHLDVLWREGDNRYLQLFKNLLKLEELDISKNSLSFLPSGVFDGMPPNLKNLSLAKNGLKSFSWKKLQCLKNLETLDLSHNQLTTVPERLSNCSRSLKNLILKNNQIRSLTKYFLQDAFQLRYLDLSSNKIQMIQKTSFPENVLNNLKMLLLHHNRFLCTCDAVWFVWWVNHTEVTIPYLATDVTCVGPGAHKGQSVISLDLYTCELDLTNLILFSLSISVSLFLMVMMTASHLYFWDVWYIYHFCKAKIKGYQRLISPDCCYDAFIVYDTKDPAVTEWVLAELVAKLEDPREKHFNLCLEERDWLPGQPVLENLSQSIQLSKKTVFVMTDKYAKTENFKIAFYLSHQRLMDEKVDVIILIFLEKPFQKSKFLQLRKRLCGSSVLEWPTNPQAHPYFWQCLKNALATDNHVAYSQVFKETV

| Compound | pEC50 [1, 3] | pEC50 [2, 4] | pEC50 ([1]; TLR-7 EC50, human PBMCs) | pEC50 ([2]; TLR-8 EC50, human PBMCs) |
| --- | --- | --- | --- | --- |
| Cc1c(-c2[nH]c3sc([C@@H]4C[C@@H]5C[C@H]4CN5CC(=O)NC4CC4)c(C)c3c2C(C)C)cn2ncnc2c1C [Example 184] | 8.90 | 9.47 | – | – |
| Cc1c(-c2[nH]c3sc([C@@H]4C[C@@H]5C[C@H]4CN5CC(=O)NC(C)C)c(C)c3c2C(C)C)cn2ncnc2c1C [Example 185] | 8.72 | 9.24 | – | – |
| CCNC(=O)CN1C[C@@H]2C[C@H]1C[C@H]2c1sc2[nH]c(-c3cn4ncnc4c(C)c3C)c(C(C)C)c2c1C [Example 186] | 9.18 | 9.35 | – | – |
| Cc1c(-c2[nH]c3sc(C4CC5(CC(N)C5)C4)c(C)c3c2C(C)C)cn2ncnc2c1C (stereo not drawn) [Example 187] | 9.70 | 8.96 | – | – |
| Cc1c(-c2[nH]c3sc(C4CC5(C4)CC(N(C4COC4)C4COC4)C5)c(C)c3c2C(C)C)cn2ncnc2c1C (stereo not drawn) [Example 188] | 8.25 | 7.56 | – | – |
| Cc1c(C2C[C@H]3CC[C@@H]2CN3)sc2[nH]c(-c3cc(C)c4ncnn4c3)c(C(C)C)c12 (stereo partly drawn) [Example 189] | 8.65 | 7.51 | – | – |
| Cc1c(C2CC2C(=O)N2CCNCC2)sc2[nH]c(-c3cc(C)c4ncnn4c3)c(C(C)C)c12 (stereo not drawn) [Example 192] | 6.56 | < 6.00 | – | – |
| Cc1c(C23CNCC2C3)sc2[nH]c(-c3cc(C)c4ncnn4c3)c(C(C)C)c12 (stereo not drawn) [Example 193] | 9.70 | 8.54 | – | – |
| Cc1c(C23CNCCC2C3)sc2[nH]c(-c3cc(C)c4ncnn4c3)c(C(C)C)c12 (stereo not drawn) [Example 194] | 9.70 | 8.02 | – | – |
| Cc1c(C23CCNCC2C3)sc2[nH]c(-c3cc(C)c4ncnn4c3)c(C(C)C)c12 (stereo not drawn) [Example 195] | 10.30 | 8.67 | – | – |
| Cc1c(C23CC2CCN(CC(N)=O)C3)sc2[nH]c(-c3cc(C)c4ncnn4c3)c(C(C)C)c12 (stereo not drawn) [Example 196] | 9.14 | 7.16 | – | – |
| Cc1c(C23CC2CN(CC(N)=O)C3)sc2[nH]c(-c3cc(C)c4ncnn4c3)c(C(C)C)c12 (stereo not drawn) [Example 197] | 8.76 | 7.53 | – | – |
| Cc1c(C23CNCC2C3(F)F)sc2[nH]c(-c3cc(C)c4ncnn4c3)c(C(C)C)c12 (stereo not drawn) [Example 198] | 8.30 | 7.86 | – | – |
| Cc1c(C23CCN(CC(N)=O)CC2C3)sc2[nH]c(-c3cc(C)c4ncnn4c3)c(C(C)C)c12 (stereo not drawn) [Example 199] | 9.33 | 7.83 | – | – |
| Cc1c(C23CN(CC(N)=O)CC2C3(F)F)sc2[nH]c(-c3cc(C)c4ncnn4c3)c(C(C)C)c12 (stereo not drawn) [Example 200] | 8.39 | 6.48 | – | – |
| Cc1c(C2C3CNCC32)sc2[nH]c(-c3cc(C)c4ncnn4c3)c(C(C)C)c12 (stereo not drawn) [Example 201] | > 10.30 | 9.44 | – | – |
| Cc1c(C2C3CN(CC(N)=O)CC32)sc2[nH]c(-c3cc(C)c4ncnn4c3)c(C(C)C)c12 (stereo not drawn) [Example 202] | 8.59 | 8.53 | – | – |
| Cc1c(CCC2CCN(CC(N)=O)CC2)sc2[nH]c(-c3cc(C)c4ncnn4c3)c(C(C)C)c12 [Example 203] | 8.38 | 8.21 | – | – |
| Cc1c(C23CCNCC2C3(F)F)sc2[nH]c(-c3cc(C)c4ncnn4c3)c(C(C)C)c12 (stereo not drawn) [Example 204] | 9.30 | 7.52 | – | – |
| Cc1c(C23CCN(CC(N)=O)CC2C3(F)F)sc2[nH]c(-c3cc(C)c4ncnn4c3)c(C(C)C)c12 (stereo not drawn) [Example 205] | 9.22 | 6.64 | – | – |
| CCc1c(C2CCN(CC(N)=O)CC2)sc2[nH]c(-c3cc(C)c4ncnn4c3)c(C(C)C)c12 [Example 206] | 9.74 | 7.35 | – | – |
| CCc1c(C2CCN(C(=O)[C@@H]3COCCN3)CC2)sc2[nH]c(-c3cc(C)c4ncnn4c3)c(C(C)C)c12 [Example 207] | 9.72 | 7.49 | – | – |
| CCc1c(C2CCN(C(=O)[C@H]3COCCN3)CC2)sc2[nH]c(-c3cc(C)c4ncnn4c3)c(C(C)C)c12 [Example 208] | 9.82 | 7.46 | – | – |
| Cc1c(C2CC23CCNCC3)sc2[nH]c(-c3cc(C)c4ncnn4c3)c(C(C)C)c12 (stereo not drawn) [Example 209] | 9.03 | 7.97 | – | – |
| Cc1c(CC2CCN(CC(N)=O)CC2)sc2[nH]c(-c3cc(C)c4ncnn4c3)c(C(C)C)c12 [Example 210] | 8.63 | 8.00 | – | – |
| Cc1c(C2CC23CCN(CC(N)=O)CC3)sc2[nH]c(-c3cc(C)c4ncnn4c3)c(C(C)C)c12 (stereo not drawn) [Example 211] | 8.29 | 7.51 | – | – |
| Cc1c(-c2[nH]c3sc(C45CCN(CCS(C)(=O)=O)CC4C5)c(C)c3c2C(C)C)cn2ncnc2c1C (stereo not drawn) [Example 217] | 8.90 | 7.10 | – | – |

| Compound | pEC50 [1, 3] | pEC50 [2, 4] | pEC50 ([1]; TLR-7 EC50, human PBMCs) | pEC50 ([2]; TLR-8 EC50, human PBMCs) |
| --- | --- | --- | --- | --- |
| Cc1c(-c2[nH]c3sc([C@@H]4C[C@@H]5C[C@H]4CN5CCS(C)(=O)=O)cc3c2C(C)C)cn2ncnc2c1C [Example 218] | 9.35 | 9.06 | – | – |
| Cc1c(-c2[nH]c3sc(C4CCNCC4)cc3c2C(C)C)cn2ncnc2c1C [Example 219] | 9.59 | 8.52 | – | – |
| Cc1c(-c2[nH]c3sc([C@@H]4C[C@@H]5C[C@H]4CN5)cc3c2C(C)C)cn2ncnc2c1C [Example 220] | 9.96 | 9.19 | – | – |
| Cc1c(-c2[nH]c3sc(-c4cccc(C5CCNCC5)c4)c(C)c3c2C(C)C)cn2ncnc2c1C [Example 222] | 8.07 | 7.10 | – | – |
| Cc1c(-c2[nH]c3sc(-c4cccc(C5CCN(CC(N)=O)CC5)c4)c(C)c3c2C(C)C)cn2ncnc2c1C [Example 223] | 7.81 | 7.18 | – | – |
| Cc1c(-c2[nH]c3sc(-c4cnc(C5CCNCC5)nc4)c(C)c3c2C(C)C)cn2ncnc2c1C [Example 224] | 8.91 | 8.43 | – | – |
| Cc1c(-c2[nH]c3sc(C4C[C@H]5CC[C@@H]4N5)c(C)c3c2C(C)C)cn2ncnc2c1C (stereo partly drawn) [Example 225] | – | – | 9.33 | 8.21 |
| Cc1c(-c2[nH]c3sc(-c4cnc(C5CCN(CC(N)=O)CC5)nc4)c(C)c3c2C(C)C)cn2ncnc2c1C [Example 226] | 8.38 | 9.00 | – | – |
| Cc1c(-c2[nH]c3sc(C4C[C@H]5CC[C@@H]4N5CC(N)=O)c(C)c3c2C(C)C)cn2ncnc2c1C (stereo partly drawn) [Example 227] | – | – | 8.29 | 7.81 |
| Cc1c(-c2[nH]c3sc(C4CCC45CNC5)c(C)c3c2C(C)C)cn2ncnc2c1C (stereo not drawn) [Example 228, 5-(7,8-dimethyl-[1,2,4]triazolo[1,5-a]pyridin-6-yl)-4-isopropyl-3-methyl-2-(2-azaspiro[3.3]heptan-5-yl)-6H-thieno[2,3-b]pyrrole] | 8.06 | 7.12 | – | – |
| Cc1c(C2CCN(CC(N)=O)CC2)sc2[nH]c(-c3ccc(C#N)c4ncccc34)c(C(C)C)c12 [Example 230] | 9.09 | 7.85 | – | – |
| Cc1c(C2CCN(CC(N)=O)CC2)sc2[nH]c(C3=NC(C)c4ncccc43)c(C(C)C)c12 (stereo not drawn) [Example 232] | 9.08 | 7.73 | – | – |
| Cc1cc(-c2[nH]c3sc(C4CCN(CC(N)=O)CC4)c(C)c3c2C(C)C)cn(C)c1=O [Example 234] | 8.37 | 7.98 | – | – |
| Cc1cc2ncnn2cc1-c1[nH]c2sc(C3CCN(CC(N)=O)CC3)c(C)c2c1C(C)C [Example 235] | 7.99 | 7.31 | – | – |
| Cc1c(C2CCN(CC(N)=O)CC2)sc2[nH]c(-c3cc(C)c4nnnn4c3)c(C(C)C)c12 [Example 236] | 8.71 | 7.66 | – | – |
| Cc1c(C2CCN(CC(N)=O)CC2)sc2[nH]c(-c3cc(C)c4nccn4c3)c(C(C)C)c12 [Example 237] | 9.54 | 7.16 | – | – |
| COc1cc(-c2[nH]c3sc(C4CCNCC4)c(C)c3c2C(C)C)cn2ncnc12 [Example 246, 4-isopropyl-5-(8-methoxy-[1,2,4]triazolo[1,5-a]pyridin-6-yl)-3-methyl-2-(piperidin-4-yl)-6H-thieno[2,3-b]pyrrole] | 10.05 | 8.05 | – | – |
| Cc1c(C2CCNCC2)sc2[nH]c(-c3ccc(C#N)c4ncccc34)c(C(C)C)c12 [Example 247] | 9.70 | 7.87 | – | – |
| Cc1c(C2CCNCC2)sc2[nH]c(-c3ccc(C#N)c4nccnc34)c(C(C)C)c12 [Example 248] | 7.94 | 6.97 | – | – |
| Cc1c(C2CCNCC2)sc2[nH]c(-c3cn(C)c4ncccc34)c(C(C)C)c12 [Example 249] | 9.49 | 8.52 | – | – |
| Cc1cc(-c2[nH]c3sc(C4CCNCC4)c(C)c3c2C(C)C)cn(C)c1=O [Example 250] | 9.47 | 8.44 | – | – |
| Cc1c(C2CCNCC2)sc2[nH]c(-c3cc(C)c4nnnn4c3)c(C(C)C)c12 [Example 251] | 9.89 | 8.09 | – | – |
| Cc1c(C2CCNCC2)sc2[nH]c(-c3cc(C)c4nccn4c3)c(C(C)C)c12 [Example 252] | 10.15 | 7.47 | – | – |
| Cc1c(-c2[nH]c3sc(C4C[C@@H]5C[C@H]4CC5NC4COC4)c(C)c3c2C(C)C)cn2ncnc2c1C (stereo partly drawn) [Example 253, N-((1S,4S)-5-(5-(7,8-dimethyl-[1,2,4]triazolo[1,5-a]pyridin-6-yl)-4-isopropyl-3-methyl-6H-thieno[2,3-b]pyrrol-2-yl)bicyclo[2.2.1]heptan-2-yl)oxetan-3-amine] | 10.00 | 8.97 | – | – |
| Cc1c(-c2[nH]c3sc(C4C[C@@H]5C[C@H]4CC5N4CC5(C4)CS(=O)(=O)C5)c(C)c3c2C(C)C)cn2ncnc2c1C (stereo partly drawn) [Example 254] | 9.42 | 8.44 | – | – |
| Cc1c(-c2[nH]c3sc(C4C[C@@H]5C[C@H]4CC5N4CCS(=N)(=O)CC4)c(C)c3c2C(C)C)cn2ncnc2c1C (stereo partly drawn) [Example 255] | 8.91 | 7.67 | – | – |
| Cc1c(-c2[nH]c3sc(C4C[C@@H]5C[C@H]4CC5N4CCS(=O)(=O)CC4)c(C)c3c2C(C)C)cn2ncnc2c1C (stereo partly drawn) [Example 256] | 8.64 | 7.53 | – | – |
